{"source": "ChEMBL document CHEMBL1128144", "about": "“Cyclic sulfone-3-carboxamides as novel P2-ligands for Ro 31-8959 based HIV-1 protease inhibitors” (Bioorg Med Chem Lett, 1995)", "data": [{"tested_on": "MT4", "experiment": "Inhibitory activity against HIV-1 in MT-4 lymphoid cells infected with IIIb", "format": "functional", "settings": "Homo sapiens, read-out: CIC95", "units": {"IC95": "µM"}, "values": [{"smiles": "CC(C)(C)NC(=O)[C@@H]1C[C@@H]2CCCC[C@@H]2CN1C[C@@H](O)[C@H](Cc1ccccc1)NC(=O)[C@@H]1CCCS(=O)(=O)C1", "IC95": 0.2}, {"smiles": "CC(C)(C)NC(=O)[C@@H]1C[C@@H]2CCCC[C@@H]2CN1C[C@@H](O)[C@H](Cc1ccccc1)NC(=O)[C@H]1CCCS(=O)(=O)C1", "IC95": 0.4}]}, {"molecular_target": "Human immunodeficiency virus type 1 protease (Human immunodeficiency virus 1, UniProt Q72874)", "experiment": "Inhibition of HIV-1 Protease", "settings": "not given", "units": {"IC50": "µM"}, "values": [{"smiles": "CC(C)(C)NC(=O)[C@@H]1C[C@@H]2CCCC[C@@H]2CN1C[C@@H](O)[C@H](Cc1ccccc1)NC(=O)[C@@H]1CCCSC1", "IC50": 0.0784}, {"smiles": "CC(C)(C)NC(=O)[C@@H]1C[C@@H]2CCCC[C@@H]2CN1C[C@@H](O)[C@H](Cc1ccccc1)NC(=O)[C@H]1CCCSC1", "IC50": 0.0988}, {"smiles": "CC(C)(C)NC(=O)[C@@H]1C[C@@H]2CCCC[C@@H]2CN1C[C@@H](O)[C@H](Cc1ccccc1)NC(=O)[C@@H]1CCS(=O)(=O)C1", "IC50": 0.2}, {"smiles": "CC(C)(C)NC(=O)[C@@H]1C[C@@H]2CCCC[C@@H]2CN1C[C@@H](O)[C@H](Cc1ccccc1)NC(=O)[C@@H]1CCSC1", "IC50": 0.342}, {"smiles": "CC(C)(C)NC(=O)[C@@H]1C[C@@H]2CCCC[C@@H]2CN1C[C@@H](O)[C@H](Cc1ccccc1)NC(=O)C1=CCCSC1", "IC50": 0.167}, {"smiles": "CC(C)(C)NC(=O)[C@@H]1C[C@@H]2CCCC[C@@H]2CN1C[C@@H](O)[C@H](Cc1ccccc1)NC(=O)[C@H]1CCS(=O)(=O)C1", "IC50": 0.193}, {"smiles": "CC(C)(C)NC(=O)[C@@H]1C[C@@H]2CCCC[C@@H]2CN1C[C@@H](O)[C@H](Cc1ccccc1)NC(=O)C1=CCCS(=O)(=O)C1", "IC50": 0.0547}, {"smiles": "CC(C)(C)NC(=O)[C@@H]1C[C@@H]2CCCC[C@@H]2CN1C[C@@H](O)[C@H](Cc1ccccc1)NC(=O)[C@H]1CCSC1", "IC50": 0.65}, {"smiles": "CC(C)(C)NC(=O)[C@@H]1C[C@@H]2CCCC[C@@H]2CN1C[C@@H](O)[C@H](Cc1ccccc1)NC(=O)[C@@H]1CCCS(=O)(=O)C1", "IC50": 0.0092}, {"smiles": "CC(C)(C)NC(=O)[C@@H]1C[C@@H]2CCCC[C@@H]2CN1C[C@@H](O)[C@H](Cc1ccccc1)NC(=O)[C@H]1CCCS(=O)(=O)C1", "IC50": 0.0235}]}]}
